Assay results from PubChem BioAssay AID1963861 (Molecular Pharmacology Branch, DTP, NCI, 2024).

Test system: 885724-159-R-J1-PDC KRAS PDC multicell spheroid viability
Assay: Anticancer human tumor 885724-159-R-J1-PDC patient-derived pancreatic adenocarcinoma cell line growth inhibition [KRAS2]
Conditions: for IC50: curve of first compound; for viability, T/C: stronger effect = lower value
In short: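 KRAS-mutant tumor cells were grown as spheroids with HUVEC endothelial cells and human MSCs as stroma. Targeted agents were tested alone and with KRAS pathway inhibitors. Doses started at or near clinical Cmax, or 10 microM, descending half-log.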

[1] = second compound 0.1 µM, first compound 0.0316 µM
[2] = second compound 0.1 µM, first compound 0.1 µM
[3] = second compound 0.1 µM, first compound 0.316 µM
[4] = second compound 0.1 µM, first compound 1 µM
[5] = second compound 0.1 µM, first compound 3.16 µM
[6] = second compound 0.1 µM, first compound 10 µM
[7] = second compound 0.316 µM, first compound 0.0316 µM
[8] = second compound 0.316 µM, first compound 0.1 µM
[9] = second compound 0.316 µM, first compound 0.316 µM
[10] = second compound 0.316 µM, first compound 1 µM
[11] = second compound 0.316 µM, first compound 3.16 µM
[12] = second compound 0.316 µM, first compound 10 µM
[13] = second compound 1 µM, first compound 0.0316 µM
[14] = second compound 1 µM, first compound 0.1 µM
[15] = second compound 1 µM, first compound 0.316 µM
[16] = second compound 1 µM, first compound 1 µM
[17] = second compound 1 µM, first compound 3.16 µM
[18] = second compound 1 µM, first compound 10 µM
[19] = second compound 3.16 µM, first compound 0.0316 µM
[20] = second compound 3.16 µM, first compound 0.1 µM
[21] = second compound 3.16 µM, first compound 0.316 µM
[22] = second compound 3.16 µM, first compound 1 µM
[23] = second compound 3.16 µM, first compound 3.16 µM
[24] = second compound 3.16 µM, first compound 10 µM
[25] = second compound 10 µM, first compound 0.0316 µM
[26] = second compound 10 µM, first compound 0.1 µM
[27] = second compound 10 µM, first compound 0.316 µM
[28] = second compound 10 µM, first compound 1 µM
[29] = second compound 10 µM, first compound 3.16 µM
[30] = second compound 10 µM, first compound 10 µM
[31] = second compound 0.1 µM, first compound 0.00316 µM
[32] = second compound 0.1 µM, first compound 0.01 µM
[33] = second compound 0.316 µM, first compound 0.00316 µM
[34] = second compound 0.316 µM, first compound 0.01 µM
[35] = second compound 1 µM, first compound 0.00316 µM
[36] = second compound 1 µM, first compound 0.01 µM
[37] = second compound 3.16 µM, first compound 0.00316 µM
[38] = second compound 3.16 µM, first compound 0.01 µM
[39] = second compound 10 µM, first compound 0.00316 µM
[40] = second compound 10 µM, first compound 0.01 µM
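Further: spheroids exposed to agents for 7 days before readout.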

Structure (SMILES) | IC50 (second compound 0.1 µM) [µM] | IC50 (second compound 0.316 µM) [µM] | IC50 (second compound 1 µM) [µM] | IC50 (second compound 3.16 µM) [µM] | IC50 (second compound 10 µM) [µM] | viability, T/C [1] [%] | viability, T/C [2] [%] | viability, T/C [3] [%] | viability, T/C [4] [%] | viability, T/C [7] [%] | viability, T/C [8] [%] | viability, T/C [9] [%] | viability, T/C [10] [%] | viability, T/C [13] [%] | viability, T/C [14] [%] | viability, T/C [15] [%] | viability, T/C [19] [%] | viability, T/C [20] [%] | viability, T/C [25] [%] | viability, T/C [26] [%] | further results
CC(C)NCC(C(=O)N1CCN(c2ncnc3c2C(C)CC3O)CC1)c1ccc(Cl)cc1 (stereo not given) + CC1OCC2(CCN(c3cnc(Sc4ccnc(N)c4Cl)c(N)n3)CC2)C1N | 8.34 | 5.81 | 2.21 | 0.524 | 0.1 | 77.6 | 72.6 | 64.5 | 65.5 | 72.5 | 60.3 | 58.9 | 61.5 | 67.8 | 62.1 | 55 | 57.1 | 55.6 | 56.4 | 49.6 | viability, T/C [5]: 63.8%; viability, T/C [6]: 45.9%; viability, T/C [11]: 59.7%; viability, T/C [12]: 42.7%; viability, T/C [16]: 51.4%; viability, T/C [17]: 54.4%; viability, T/C [18]: 41.7%; viability, T/C [21]: 46.2%; viability, T/C [22]: 47.5%; viability, T/C [23]: 46.5%; viability, T/C [24]: 32.2%; viability, T/C [27]: 42.4%; viability, T/C [28]: 37%; viability, T/C [29]: 36.2%; viability, T/C [30]: 21.8%
CC1(C)CCC(CN2CCN(c3ccc(C(=O)NS(=O)(=O)c4ccc(NCC5CCOCC5)c([N+](=O)[O-])c4)c(Oc4cnc5[nH]ccc5c4)c3)CC2)=C(c2ccc(Cl)cc2)C1 + CC1OCC2(CCN(c3cnc(Sc4ccnc(N)c4Cl)c(N)n3)CC2)C1N | 4.31 | 3.45 | 2.85 | 1.62 | 1.21 | 88 | 88.3 | 89 | 74.8 | 82.3 | 83.8 | 75.4 | 74.2 | 77.8 | 75.2 | 68.5 | 64.1 | 63.7 | 58 | 58.3 | viability, T/C [5]: 58.2%; viability, T/C [6]: 29.7%; viability, T/C [11]: 51.7%; viability, T/C [12]: 22.1%; viability, T/C [16]: 62.2%; viability, T/C [17]: 51.1%; viability, T/C [18]: 17.6%; viability, T/C [21]: 63.2%; viability, T/C [22]: 57.4%; viability, T/C [23]: 39.7%; viability, T/C [24]: 12%; viability, T/C [27]: 60.5%; viability, T/C [28]: 53.5%; viability, T/C [29]: 30.4%; viability, T/C [30]: 3.18%
CCN1CCN(Cc2ccc(Nc3ncc(F)c(-c4cc(F)c5nc(C)n(C(C)C)c5c4)n3)nc2)CC1 + CC1OCC2(CCN(c3cnc(Sc4ccnc(N)c4Cl)c(N)n3)CC2)C1N | > 1 | > 1 | > 1 | > 1 | > 1 | 78 | 74.3 | 79.8 | 76.9 | 71.6 | 71.2 | 81.2 | 81 | 71.4 | 63.5 | 75.5 | 68.7 | 61.5 | 63.2 | 59.6 | viability, T/C [31]: 88.2%; viability, T/C [32]: 94.5%; viability, T/C [33]: 80%; viability, T/C [34]: 76.3%; viability, T/C [35]: 82.7%; viability, T/C [36]: 77.5%; viability, T/C [16]: 73.7%; viability, T/C [37]: 73.8%; viability, T/C [38]: 73%; viability, T/C [21]: 68.1%; viability, T/C [22]: 71%; viability, T/C [39]: 70.9%; viability, T/C [40]: 68.1%; viability, T/C [27]: 66%; viability, T/C [28]: 63.2%
Cn1ncnc1[C@H]1c2n[nH]c(=O)c3cc(F)cc(c23)N[C@@H]1c1ccc(F)cc1 + CC1OCC2(CCN(c3cnc(Sc4ccnc(N)c4Cl)c(N)n3)CC2)C1N | > 0.1 | > 0.1 | > 0.1 | > 0.1 | > 0.1 | 78.5 | 78.7 |  |  | 71.8 | 69.7 |  |  | 69.2 | 73.6 |  | 62.5 | 58.8 | 61.7 | 61.4 | viability, T/C (second compound 0.1 µM, first compound 0.000316 µM): 84.8%; viability, T/C (second compound 0.1 µM, first compound 0.001 µM): 86.1%; viability, T/C [31]: 85.2%; viability, T/C [32]: 87.9%; viability, T/C (second compound 0.316 µM, first compound 0.000316 µM): 76.4%; viability, T/C (second compound 0.316 µM, first compound 0.001 µM): 78%; viability, T/C [33]: 78.2%; viability, T/C [34]: 79.1%; viability, T/C (second compound 1 µM, first compound 0.000316 µM): 78.6%; viability, T/C (second compound 1 µM, first compound 0.001 µM): 74.5%; viability, T/C [35]: 71.4%; viability, T/C [36]: 68.5%; viability, T/C (second compound 3.16 µM, first compound 0.000316 µM): 70.1%; viability, T/C (second compound 3.16 µM, first compound 0.001 µM): 72.6%; viability, T/C [37]: 69.8%; viability, T/C [38]: 67%; viability, T/C (second compound 10 µM, first compound 0.000316 µM): 62.7%; viability, T/C (second compound 10 µM, first compound 0.001 µM): 65.5%; viability, T/C [39]: 64.8%; viability, T/C [40]: 59.9%
